Data published in US20230263822A1, “MODULATION OF FACTOR 11 EXPRESSION” (Ionis Pharmaceuticals, Inc., priority 2008, published 2023).
Strand notation (5' to 3'): a small letter for the sugar, then the base; units joined by * are phosphorothioate-linked, units joined directly phosphodiester-linked; [ ] holds rarer units or linkages, { } end groups; capitals alone tell only the bases. e = 2'-O-(2-methoxyethyl) (MOE); [5mC] = 5-methylcytosine; d = 2'-deoxy (DNA)

Columns and labels:
human Factor 11 mRNA [1] = experiment: Dose-dependent inhibition of human Factor 11 in HepG2 cells, lipofectin 2.34-75 nM (Example 5); assay type: cell-based; settings: for percent inhibition of human Factor 11 mRNA relative to untreated control cells: ~16 hours
Procedure: Cells were plated at a density of 10,000 cells per well and transfected using lipofectin reagent with 2.34 nM, 4.69 nM, 9.375 nM, 18.75 nM, 37.5 nM, and 75 nM concentrations of antisense oligonucleotide, as specified in Table 11. After a treatment period of approximately 16 hours, RNA was isolated from the cells and human Factor 11 mRNA levels were measured by quantitative real-time PCR. Human Factor 11 primer probe set RTS 2966 was used to measure mRNA levels. Factor 11 mRNA levels were adjusted according to total RNA content, as measured by RIBOGREEN. Results are presented as percent inhibition of human Factor 11, relative to untreated control cells.

human Factor 11 mRNA [2] = experiment: Dose-dependent inhibition of human Factor 11 in HepG2 cells, electroporation 625-20,000 nM (Example 5); assay type: cell-based; settings: ~16 hours
Procedure: The gapmers were also transfected via electroporation and their dose dependent inhibition of human Factor 11 mRNA was measured. Cells were plated at a density of 20,000 cells per well and transfected via electroporation with 625 nM, 1250 nM, 2500 nM, 5,000 nM, 10,000 nM, and 20,000 nM concentrations of antisense oligonucleotide, as specified in Table 12. After a treatment period of approximately 16 hours, RNA was isolated from the cells and human Factor 11 mRNA levels were measured by quantitative real-time PCR. Human Factor 11 primer probe set RTS 2966 was used to measure mRNA levels. Factor 11 mRNA levels were adjusted according to total RNA content, as measured by RIBOGREEN. Results are presented as percent inhibition of human Factor 11, relative to untreated control cells.

[3] = Hematology assays in cynomolgus monkeys (Example 46); assay type: in vivo
How it was run: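 Two male and two female monkeys per group received antisense oligonucleotide subcutaneously at 25 mg/kg, three times weekly in week 1 then twice weekly through week 8; PBS controls dosed identically. Blood sampled pre-dose and repeatedly during dosing for PT, aPTT and hematologic factors; necropsy on day 55.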

[4] = system: IL-1β, IL-6, IFN-γ, TNF-α, IL-8, MIP-1α, MCP-1, MIP-1β, RANTES; experiment: Cytokine and chemokine assays in cynomolgus monkeys (Example 46); assay type: in vivo
How it was run: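 Male and female monkeys, four per group, received antisense oligonucleotide s.c. at 25 mg/kg three times weekly in week 1, then twice weekly through week 8, against a PBS control. Blood was sampled 14 days pre-dose and on day 55, using primate antibodies (IL-1β, IL-6, IFN-γ, TNF-α) or cross-reacting human antibodies (others).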

[5] = day-14 (before start of treatment)

With “416925 (antisense GGTGCACAGTTTCTGGCAGG; 3-14-3 gapmer chemistry, further chemistry not given here) [compound 416925]” the IC50 (human Factor 11 mRNA [1]) was 13 nM, the “percent inhibition of human Factor 11 mRNA relative to untreated control cells” value (human Factor 11 mRNA [1]; 2.34 nM) was 24% and the “percent inhibition of human Factor 11 mRNA relative to untreated control cells” value (human Factor 11 mRNA [1]; 4.69 nM) was 34%. For the same substance, the “percent inhibition of human Factor 11 mRNA relative to untreated control cells” value (human Factor 11 mRNA [1]; 9.375 nM) was 45%, the “percent inhibition of human Factor 11 mRNA relative to untreated control cells” value (human Factor 11 mRNA [1]; 18.75 nM) was 56% and the “percent inhibition of human Factor 11 mRNA relative to untreated control cells” value (human Factor 11 mRNA [1]; 37.5 nM) was 67%. For the same substance, the “percent inhibition of human Factor 11 mRNA relative to untreated control cells” value (human Factor 11 mRNA [1]; 75 nM) was 72%, the “percent inhibition of human Factor 11 mRNA relative to untreated control cells” value (human Factor 11 mRNA [2]; 625 nM) was 64% and the “percent inhibition of human Factor 11 mRNA relative to untreated control cells” value (human Factor 11 mRNA [2]; 1250 nM) was 80%. The “percent inhibition of human Factor 11 mRNA relative to untreated control cells” value (human Factor 11 mRNA [2]; 2500 nM) was 88%, the “percent inhibition of human Factor 11 mRNA relative to untreated control cells” value (human Factor 11 mRNA [2]; 5000 nM) was 91% and the “percent inhibition of human Factor 11 mRNA relative to untreated control cells” value (human Factor 11 mRNA [2]; 10000 nM) was 95%. The “percent inhibition of human Factor 11 mRNA relative to untreated control cells” value (human Factor 11 mRNA [2]; 20000 nM) was 96%.
For “416826 (antisense ATGCCCTTCATGTCTAGGTC; 5-10-5 gapmer, further chemistry not given here) [compound 416826]”, the IC50 (human Factor 11 mRNA [1]) was 15 nM, the “percent inhibition of human Factor 11 mRNA relative to untreated control cells” value (human Factor 11 mRNA [1]; 2.34 nM) was 15% and the “percent inhibition of human Factor 11 mRNA relative to untreated control cells” value (human Factor 11 mRNA [1]; 4.69 nM) was 22%. For the same substance, the “percent inhibition of human Factor 11 mRNA relative to untreated control cells” value (human Factor 11 mRNA [1]; 9.375 nM) was 32%, the “percent inhibition of human Factor 11 mRNA relative to untreated control cells” value (human Factor 11 mRNA [1]; 18.75 nM) was 54% and the “percent inhibition of human Factor 11 mRNA relative to untreated control cells” value (human Factor 11 mRNA [1]; 37.5 nM) was 76%. For the same substance, the “percent inhibition of human Factor 11 mRNA relative to untreated control cells” value (human Factor 11 mRNA [1]; 75 nM) was 90%, the “percent inhibition of human Factor 11 mRNA relative to untreated control cells” value (human Factor 11 mRNA [2]; 625 nM) was 67% and the “percent inhibition of human Factor 11 mRNA relative to untreated control cells” value (human Factor 11 mRNA [2]; 1250 nM) was 82%. For the same substance, the “percent inhibition of human Factor 11 mRNA relative to untreated control cells” value (human Factor 11 mRNA [2]; 2500 nM) was 89%, the “percent inhibition of human Factor 11 mRNA relative to untreated control cells” value (human Factor 11 mRNA [2]; 5000 nM) was 92% and the “percent inhibition of human Factor 11 mRNA relative to untreated control cells” value (human Factor 11 mRNA [2]; 10000 nM) was 95%. For the same substance, the “percent inhibition of human Factor 11 mRNA relative to untreated control cells” value (human Factor 11 mRNA [2]; 20000 nM) was 97%.
Substance “ISIS 449711: 3-8-3, 4-8-4, 2-10-2, 3-10-3 or 4-10-4 MOE microwalk gapmer (Table 46) (antisense eA*e[5mC]*dA*dG*dT*dT*dT*d[5mC]*dT*dG*dG*d[5mC]*eA*eG)” has an HCT ([3]; Day 17) of 42%, an MCH ([3]; Day 17) of 22.2 pg and an MCHC ([3]; Day 17) of 29.9 g/dL. It also gave an MCV ([3]; Day 17) of 75 fL, an RBC count ([3]; Day 17) of 5.6e+06 µL⁻¹ and a WBC count ([3]; Day 17) of 10000 µL⁻¹. It also gave a hemoglobin content ([3]; Day 17) of 12.5 g/dL, a monocytes ([3]; Day 17) of 5.9% and a neutrophils ([3]; Day 17) of 52%. For the same substance, the platelet count ([3]; Day 17) was 325 ×100/μL, the HCT ([3]; Day 31) was 39% and the MCH ([3]; Day 31) was 22.1 pg. For the same substance, the MCHC ([3]; Day 31) was 29.8 g/dL, the MCV ([3]; Day 31) was 73 fL and the RBC count ([3]; Day 31) was 5.4e+06 µL⁻¹. The WBC count ([3]; Day 31) was 9000 µL⁻¹, the hemoglobin content ([3]; Day 31) was 11.8 g/dL and the monocytes ([3]; Day 31) was 6.9%. For the same substance, the neutrophils ([3]; Day 31) was 58%, the platelet count ([3]; Day 31) was 309 ×100/μL and the HCT ([3]; Day 45) was 39%. The MCH ([3]; Day 45) was 21.7 pg, the MCHC ([3]; Day 45) was 29.6 g/dL and the MCV ([3]; Day 45) was 73 fL. For the same substance, the RBC count ([3]; Day 45) was 5.4e+06 µL⁻¹, the WBC count ([3]; Day 45) was 9000 µL⁻¹ and the hemoglobin content ([3]; Day 45) was 11.5 g/dL. For the same substance, the monocytes ([3]; Day 45) was 7.6%, the neutrophils ([3]; Day 45) was 45% and the platelet count ([3]; Day 45) was 257 ×100/μL. The HCT ([3]; Day 55) was 38%, the MCH ([3]; Day 55) was 21.3 pg and the MCHC ([3]; Day 55) was 29.5 g/dL. The MCV ([3]; Day 55) was 73 fL, the RBC count ([3]; Day 55) was 5.3e+06 µL⁻¹ and the WBC count ([3]; Day 55) was 7000 µL⁻¹. It also gave a hemoglobin content ([3]; Day 55) of 11.3 g/dL, a monocytes ([3]; Day 55) of 7.8% and a neutrophils ([3]; Day 55) of 70%. The platelet count ([3]; Day 55) was 259 ×100/μL, the HCT ([3]; Day-5) was 41% and the MCH ([3]; Day-5) was 22.7 pg. For the same substance, the MCHC ([3]; Day-5) was 30.7 g/dL, the MCV ([3]; Day-5) was 74 fL and the RBC count ([3]; Day-5) was 5.7e+06 µL⁻¹. It also gave a WBC count ([3]; Day-5) of 12000 µL⁻¹, a hemoglobin content ([3]; Day-5) of 12.7 g/dL and a monocytes ([3]; Day-5) of 2.3%. The neutrophils ([3]; Day-5) was 71%, the platelet count ([3]; Day-5) was 431 ×100/μL and the HCT ([3]; Day-14) was 41%. The MCH ([3]; Day-14) was 22.6 pg, the MCHC ([3]; Day-14) was 31.0 g/dL and the MCV ([3]; Day-14) was 73 fL. For the same substance, the RBC count ([3]; Day-14) was 5.6e+06 µL⁻¹, the WBC count ([3]; Day-14) was 13000 µL⁻¹ and the hemoglobin content ([3]; Day-14) was 12.7 g/dL. For the same substance, the monocytes ([3]; Day-14) was 1.2%, the neutrophils ([3]; Day-14) was 64% and the platelet count ([3]; Day-14) was 410 ×100/μL. For the same substance, the IFN-γ level ([4]; day 55) was 22 pg/mL, the IL-1ß level ([4]; day 55) was 146 pg/mL and the IL-6 level ([4]; day 55) was 7 pg/mL. The IL-8 level ([4]; day 55) was 110 pg/mL, the MCP-1 level ([4]; day 55) was 469 pg/mL and the MIP-1ß level ([4]; day 55) was 91 pg/mL. The MIP-1α level ([4]; day 55) was 17 pg/mL, the RANTES level ([4]; day 55) was 3029 pg/mL and the TNF-α level ([4]; day 55) was 31 pg/mL. For the same substance, the IFN-γ level [4, 5] was 29 pg/mL, the IL-1ß level [4, 5] was 79 pg/mL and the IL-6 level [4, 5] was 2 pg/mL. It also gave an IL-8 level [4, 5] of 156 pg/mL, an MCP-1 level [4, 5] of 264 pg/mL and an MIP-1ß level [4, 5] of 24 pg/mL. The MIP-1α level [4, 5] was 20 pg/mL, the RANTES level [4, 5] was 3687 pg/mL and the TNF-α level [4, 5] was 6 pg/mL.
